# Reference: US20050209278A1, “Piperidinyl- and piperazinyl-sulfonylmethyl hydroxamic acids and their use as protease inhibitors” (priority 2002, published 2005)
# Structures can show the parent of a compound that is named as a salt. Where two headings read alike, the source gives them in different places.
# How the values were obtained:
# MMP-14 = biological target: T1, MMP-14 (Homo sapiens, UniProt P50281); experiment: In vitro MMP inhibition, Ki determination (fluorogenic substrate II); assay type: biochemical
# T1 construct: The catalytic domain enzyme was expressed in E. coli inclusion bodies, solubilized in urea; made in house
# Description: (§1) Several hydroxamic acids and salts thereof were analyzed in in vitro assays to determine their ability to inhibit the MMP cleavage of peptide substrates. […] and IC50 constants were calculated from the assayed hydroxamic acid-MMP interactions.
# (§2) Human recombinant MMP-1, MMP-2, MMP-9, MMP-13, and MMP-14 were used in this assay. All enzymes were prepared in Assignee's laboratories following usual laboratory procedures. Protocols for the preparation and use of these enzymes are available in the scientific literature. See, e.g., Enzyme Nomenclature (Academic Press, San Diego, Calif., 1992) (and the citations therein). See also, Freije et al., “Molecular cloning and expression of collagenase-3, a novel human matrix metalloproteinase produced by breast carcinomas,” J Biol. Chem., 269(24), 16766-16773 (1994).
# The MMP-14 full length cDNA was provided by Dr. Gregory Goldberg of Washington University (St. Louis, Mo.). The catalytic domain enzyme was expressed in E. coli inclusion bodies, solubilized in urea, purified on a preparative […] reverse phase HPLC column, and then refolded in the presence of zinc acetate and purified for use.
# (§3) All MMPs were activated using 4-aminophenylmercuric acetate (“APMA”, Sigma Chemical, St. Louis, Mo.) or trypsin. MMP-9 also was activated using human recombinant MMP-3 (purified in Assignee's laboratory following standard cloning and purification techniques).
# (§4) Two fluorogenic, methoxycoumarin-containing polypeptide substrates were used in the MMP inhibition assays: [drawing 427] Here, “Dpa” is 3-(2,4-dinitrophenyl)-L-2,3-diaminopropionyl group, and “MCA” is 7-methoxycoumarin-4-yl acetyl. Substrate (I) was purchased from Baychem (Redwood City, Calif.), and substrate II was prepared Assignee's laboratory. Substrate I was used in the IC50 determination assays, while substrate II was used in the Ki determination assays. In the absence of MMP inhibitory activity, either substrate is cleaved at the Gly-Leu peptide bond. This cleavage separates the highly fluorogenic peptide from the 2,4-dinitrophenyl quencher, thus resulting in increase of fluorescent intensity.
# (§5) The stock solutions of the assayed hydroxamic acids (or salts thereof) were prepared in 1% dimethyl sulfoxide (DMSO). These stock solutions were diluted in Buffer A (100 mM Tris-HCl, 100 mM NaCl, 10 mM CaCl2, 0.05% polyoxyethylene 23 lauryl ether, pH 7.5) to obtain solutions with different hydroxamic acid concentrations, i.e., assay solutions with different concentrations of the assayed MMP inhibitory compound. The experiment controls contained the same amount of Buffer A/DMSO as the assayed sample, but contained no hydroxamic acid (or salt thereof).
# (§6) The assays from which the Ki determinations were made were performed as follows. The assayed hydroxamic acid samples were incubated in separate wells of untreated white polystyrene plates (Nunc Nalgene International, Rochester, N.Y.), and analyzed on a Tecan SpectraFlour Plus plate reader. The excitation wavelength was 330 nm, and the emission wavelength—420 nm. All samples (assayed hydroxamic acids and controls) were incubated in separate plate wells at room temperature for 1 hr in the presence of 4 μM of MMP substrate (II). In the absence of MMP inhibitory activity, substrate II was cleaved at the Gly-Leu bond resulting in an increase of relative fluorescence. Inhibition was observed as a reduced rate of this increase in relative fluorescence. The various hydroxamic acids were analyzed using a single low enzyme concentration with a single substrate concentration fixed at or below the Km. This protocol is a modification of method by Knight et al., FEBS Lett., 296(3), 263-266 (1992). Apparent inhibitory constants were determined by non-linear regression of reaction velocity as a function of inhibitor and enzyme concentration using Morrison's equation, as described by Kuzmic, Anal. Biochem. 286, 45-50 (2000).
# MMP-9 = biological target: T2, MMP-9 (Homo sapiens, UniProt P14780); experiment: as above; assay type: biochemical
# T2 construct: made in house; host or cells: MMP-9-transfected HT1080 cells (spent media)
# Description: as §1, §2
# The MMP-9 proenzyme was purified by gelatin Sepharose chromatography from spent media of MMP-9-transfected HT1080 cells provided by Dr. Howard Welgus of Washington University (St. Louis, Mo.).
# as §3, §4, §5
# as §6, with “(2000). Modifications were made in the non-linear regression method to allow a common control reaction rate and effective enzyme concentration to be shared between all dose-response relationships on a given assay plate. […]” for “(2000).”
# [1] = human recombinant enzyme (catalytic domain), 4 μM substrate II, room temperature, 1 hr, read-out: MMP-14 Ki
# [2] = human recombinant enzyme, 4 μM substrate II, room temperature, 1 hr
# [3] = value not in parenthesis, read-out: MMP-14 Ki
# [4] = MMP-14 Ki, value not in parenthesis
# T2 sequence (P14780 107-707 limits assumed): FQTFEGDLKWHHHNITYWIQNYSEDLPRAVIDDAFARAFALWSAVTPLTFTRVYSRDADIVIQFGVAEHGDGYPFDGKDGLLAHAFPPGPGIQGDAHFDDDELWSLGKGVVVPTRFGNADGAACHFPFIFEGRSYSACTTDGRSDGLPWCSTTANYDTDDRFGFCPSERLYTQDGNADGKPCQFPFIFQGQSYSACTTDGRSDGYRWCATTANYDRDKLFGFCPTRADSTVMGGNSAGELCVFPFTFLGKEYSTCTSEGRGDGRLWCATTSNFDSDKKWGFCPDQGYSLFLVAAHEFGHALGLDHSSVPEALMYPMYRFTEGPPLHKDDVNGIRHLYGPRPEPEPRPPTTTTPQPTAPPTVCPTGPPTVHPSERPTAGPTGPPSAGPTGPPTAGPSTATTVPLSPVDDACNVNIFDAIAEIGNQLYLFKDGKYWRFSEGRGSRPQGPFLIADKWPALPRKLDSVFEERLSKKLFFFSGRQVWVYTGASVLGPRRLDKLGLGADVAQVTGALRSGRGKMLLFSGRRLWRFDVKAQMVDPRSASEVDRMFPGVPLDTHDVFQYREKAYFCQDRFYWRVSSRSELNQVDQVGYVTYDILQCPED
SMILES,Ki (MMP-14; [1]) [nM],Ki (MMP-9; [2]) [nM],Ki (MMP-14; [3]) [nM],Ki (MMP-9; value not in parenthesis) [nM],Ki (MMP-14; [4]) [nM]
"COCCN1CCC(C(=O)NO)(S(=O)(=O)N2CCC(c3ccc(OCCCC(F)(F)F)cc3)CC2)CC1 [Example 20, N-hydroxy-1-(2-methoxyethyl)-4-({4-[4-(4,4,4-trifluorobutoxy)phenyl]piperidin-1-yl}sulfonyl)piperidine-4-carboxamide Hydrochloride]",2670,3.86,–,–,–
"CCCCc1ccc(C2CCN(S(=O)(=O)C3(C(=O)NO)CCN(C4CC4)CC3)CC2)nc1 [Example 24, 4-{[4-(5-butylpyridin-2-yl)piperidin-1-yl]sulfonyl}-1-cyclopropyl-N-hydroxypiperidine-4-carboxamide Hydrochloride]",2900,0.12,–,–,–
"O=C(NO)C1(S(=O)(=O)N2CCC(c3ccc(OCC(F)(F)F)cc3)CC2)CCN(C2CC2)CC1 [Example 25, 1-cyclopropyl-N-hydroxy-4-({4-[4-(2,2,2-trifluoroethoxy)phenyl]piperidin-1-yl}sulfonyl)piperidine-4-carboxamide Hydrochloride]",5380,6,–,–,–
"CCCCCCCCC1CCN(S(=O)(=O)C2(C(=O)NO)CCOCC2)CC1 [Example 26, 4-(4-octyl-piperidine-1-sulfonyl)-tetrahydro-pyran-4-carboxylic Acid Hydroxyamide]",657,0.33,–,–,–
O=C(NO)C1(S(=O)(=O)N2CCC(c3cnc(OCC(F)(F)C(F)(F)F)cn3)CC2)CCOCC1 [Example 27],6200,0.54,–,–,–
O=C(NO)C1(S(=O)(=O)N2CCN(c3ccc(COCC(F)(F)C(F)(F)C(F)(F)C(F)F)cc3)CC2)CCOCC1 [Example 68],–,–,–,208,> 10000
O=C(NO)C1(S(=O)(=O)N2CCN(c3ccc(COCC(F)(F)C(F)(F)C(F)(F)F)cc3)CC2)CCOCC1 [Example 69],–,–,–,202,> 10000
C=CCCOC(=O)N1CCC(C(=O)NO)(S(=O)(=O)N2CCN(c3ccc(OCCCC)cc3)CC2)CC1 [Example 101],–,–,4330,3.8,–
O=C(NO)C1(S(=O)(=O)N2CCN(c3ccc(OCCCC(F)(F)F)cc3)CC2)CCN(c2cnccn2)CC1 [Example 112],–,–,1170,15.4,–
CCCCOc1ccc(N2CCN(S(=O)(=O)C3(C(=O)NO)CCN(C(=O)OCCF)CC3)CC2)cc1 [Example 113],–,–,2330,1.01,–
CCCCOc1ccc(N2CCN(S(=O)(=O)C3(C(=O)NO)CCN(C(=O)OCC(F)(F)F)CC3)CC2)cc1 [Example 115],–,–,> 10000,4.97,–
CCCCOc1ccc(N2CCN(S(=O)(=O)C3(C(=O)NO)CCN(C(=O)NCCOC)CC3)CC2)cc1 [Example 118],–,–,2600,1.5,–
COCCN1CCC(C(=O)NO)(S(=O)(=O)N2CCN(c3ccc(OCC(F)(F)F)cc3)CC2)CC1 [Example 119],–,–,4380,1.35,–
CCCCOc1ccc(N2CCN(S(=O)(=O)C3(C(=O)NO)CCN(c4ccc(O)cc4)CC3)CC2)cc1 [Example 121],–,–,> 10000,3.6,–
O=C(c1cccnc1)N1CCC(C(=O)NO)(S(=O)(=O)N2CCN(c3ccc(OCCCC(F)(F)F)cc3)CC2)CC1 [Example 122],–,–,3090,0.01,–
CCCCOc1ccc(N2CCN(S(=O)(=O)C3(C(=O)NO)CCN(C(=S)N(C)C)CC3)CC2)cc1 [Example 123],–,–,5650,2.72,–

# Further lines, with some results ahead:
Ki (MMP-14; [1]) [nM],Ki (MMP-9; [2]) [nM],Ki (MMP-14; [3]) [nM],Ki (MMP-9; value not in parenthesis) [nM],SMILES,Ki (MMP-14; [4]) [nM]
6910,8.18,–,–,"CCCCCc1ccc(N2CCN(S(=O)(=O)C3(C(=O)NO)CCN(C(=O)C(F)(F)F)CC3)CC2)cc1 [Example 21, N-hydroxy-4-{[4-(4-pentylphenyl)piperazin-1-yl]sulfonyl}-1-(trifluoroacetyl)piperidine-4-carboxamide Hydrochloride]",–
9320,3.2,–,–,"CCCCCc1ccc(N2CCN(S(=O)(=O)C3(C(=O)NO)CCN(CC)CC3)CC2)cc1F [Example 22, 1-ethyl-4-{[4-(3-fluoro-4-pentylphenyl)piperazin-1-yl]sulfonyl}-N-hydroxypiperidine-4-carboxamine Hydrochloride]",–
> 10000,2.67,–,–,"CCCCCc1ccc(N2CCN(S(=O)(=O)C3(C(=O)NO)CCOCC3)CC2)c(F)c1 [Example 23, 4-{[4-(2-fluoro-4-pentylphenyl)piperazin-1-yl]sulfonyl}-N-hydroxytetrahydro-2H-pyran-4-carboxamide Hydrochloride]",–
–,–,795,3.49,CCCCCc1cnc(N2CCN(S(=O)(=O)C3(C(=O)NO)CCOCC3)CC2)s1 [Example 56],–
–,–,328,7.05,O=C(NO)C1(S(=O)(=O)N2CCN(c3ccc(-c4ccc(Cl)cc4)cn3)CC2)CCOCC1 [Example 60],–
–,–,7130,18.1,COCCN1CCC(C(=O)NO)(S(=O)(=O)N2CCN(c3ccc(OCCCC(F)(F)F)cc3F)CC2)CC1 [Example 102],–
–,–,227,10.5,O=C(NO)C1(S(=O)(=O)N2CCN(c3ncc(Br)cn3)CC2)CCOCC1 [Example 103],–
–,–,305,11.9,O=C(NO)C1(S(=O)(=O)N2CCN(c3ncc(Br)cn3)CC2)CCOCC1 [Example 104],–
–,–,7510,235,O=C(NO)C1(S(=O)(=O)N2CCN(c3ncccn3)CC2)CCOCC1 [Example 106],–
–,–,6000,153,O=C(NO)C1(S(=O)(=O)N2CCN(c3ncccn3)CC2)CCOCC1 [Example 107],–
–,–,> 10000,401,COc1ccc(N2CCN(S(=O)(=O)C3(C(=O)NO)CCOCC3)CC2)nc1 [Example 108],–
–,–,> 10000,447,COc1ccc(N2CCN(S(=O)(=O)C3(C(=O)NO)CCOCC3)CC2)nc1 [Example 109],–
–,–,> 10000,40.6,CCCCCCCCCc1cnc(N2CCN(S(=O)(=O)C3(C(=O)NO)CCOCC3)CC2)nc1 [Example 110],–
–,–,> 10000,30.6,CCCCCCCCCc1cnc(N2CCN(S(=O)(=O)C3(C(=O)NO)CCOCC3)CC2)nc1 [Example 111],–
–,–,97,2.64,CCc1ccc(N2CCN(S(=O)(=O)C3(C(=O)NO)CCOCC3)CC2)nc1 [Example 114],–
–,–,8030,49.5,CC(C)(C)N1CCC(C(=O)NO)(S(=O)(=O)N2CCN(c3ccc(OCCCC(F)(F)F)cc3F)CC2)CC1 [Example 116],–
–,–,5690,27.7,O=C(NO)C1(S(=O)(=O)N2CCN(c3ccc(OCCCC(F)(F)F)cc3F)CC2)CCOCC1 [Example 117],–
